Key:
Melanocortin receptor 4 = Melanocortin receptor 4 (Homo sapiens, UniProt P32245)
Cannabinoid receptor 1 [1] = biological target: T1, Cannabinoid receptor 1 (Homo sapiens, UniProt P21554)
[2] = biological target: T2, Alpha-1A adrenergic receptor (Homo sapiens, UniProt P35348)
T2 sequence (P35348 whole entry): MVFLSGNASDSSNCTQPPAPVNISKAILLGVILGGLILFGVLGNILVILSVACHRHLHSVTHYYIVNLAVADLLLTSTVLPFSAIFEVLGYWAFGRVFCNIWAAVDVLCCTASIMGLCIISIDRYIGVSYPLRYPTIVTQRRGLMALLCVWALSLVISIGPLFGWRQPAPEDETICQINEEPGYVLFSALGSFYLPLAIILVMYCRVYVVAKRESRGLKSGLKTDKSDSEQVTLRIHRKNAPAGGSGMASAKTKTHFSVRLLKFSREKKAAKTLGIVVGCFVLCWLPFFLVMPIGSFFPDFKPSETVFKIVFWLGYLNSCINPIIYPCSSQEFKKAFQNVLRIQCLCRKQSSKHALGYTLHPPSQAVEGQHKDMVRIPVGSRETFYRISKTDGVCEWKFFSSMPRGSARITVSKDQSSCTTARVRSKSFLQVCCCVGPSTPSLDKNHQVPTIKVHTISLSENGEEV

[3] = biological target: T3, 5-hydroxytryptamine receptor 1A (Homo sapiens, UniProt P08908); type: functional, cell-based
T3 sequence (P08908 whole entry): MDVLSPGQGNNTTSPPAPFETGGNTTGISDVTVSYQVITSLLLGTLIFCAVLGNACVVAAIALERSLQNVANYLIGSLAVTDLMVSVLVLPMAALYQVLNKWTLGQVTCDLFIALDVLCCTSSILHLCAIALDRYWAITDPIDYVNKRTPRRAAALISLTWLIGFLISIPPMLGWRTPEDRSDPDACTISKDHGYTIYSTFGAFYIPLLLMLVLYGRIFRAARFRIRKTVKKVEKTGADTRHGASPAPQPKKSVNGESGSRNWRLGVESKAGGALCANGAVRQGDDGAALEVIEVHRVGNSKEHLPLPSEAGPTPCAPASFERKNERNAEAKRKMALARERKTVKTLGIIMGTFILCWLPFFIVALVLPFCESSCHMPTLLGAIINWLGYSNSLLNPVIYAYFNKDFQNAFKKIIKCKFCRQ

Mu-type opioid receptor = Mu-type opioid receptor (Homo sapiens, UniProt P35372); test: biochemical; type: functional
Sequence of Mu-type opioid receptor (P35372 whole entry): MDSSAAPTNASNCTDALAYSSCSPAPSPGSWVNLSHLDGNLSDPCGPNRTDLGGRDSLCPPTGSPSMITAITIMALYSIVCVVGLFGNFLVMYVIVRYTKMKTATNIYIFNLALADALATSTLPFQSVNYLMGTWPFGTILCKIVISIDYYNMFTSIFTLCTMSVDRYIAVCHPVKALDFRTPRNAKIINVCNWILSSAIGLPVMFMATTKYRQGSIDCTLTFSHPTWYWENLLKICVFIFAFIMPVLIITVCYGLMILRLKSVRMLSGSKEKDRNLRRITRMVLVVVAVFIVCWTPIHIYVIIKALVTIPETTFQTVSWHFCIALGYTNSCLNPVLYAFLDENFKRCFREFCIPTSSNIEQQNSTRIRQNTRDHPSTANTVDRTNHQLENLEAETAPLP

Estrogen receptor = biological target: T4, Estrogen receptor (Homo sapiens, UniProt P03372)
T4 sequence (P03372 whole entry): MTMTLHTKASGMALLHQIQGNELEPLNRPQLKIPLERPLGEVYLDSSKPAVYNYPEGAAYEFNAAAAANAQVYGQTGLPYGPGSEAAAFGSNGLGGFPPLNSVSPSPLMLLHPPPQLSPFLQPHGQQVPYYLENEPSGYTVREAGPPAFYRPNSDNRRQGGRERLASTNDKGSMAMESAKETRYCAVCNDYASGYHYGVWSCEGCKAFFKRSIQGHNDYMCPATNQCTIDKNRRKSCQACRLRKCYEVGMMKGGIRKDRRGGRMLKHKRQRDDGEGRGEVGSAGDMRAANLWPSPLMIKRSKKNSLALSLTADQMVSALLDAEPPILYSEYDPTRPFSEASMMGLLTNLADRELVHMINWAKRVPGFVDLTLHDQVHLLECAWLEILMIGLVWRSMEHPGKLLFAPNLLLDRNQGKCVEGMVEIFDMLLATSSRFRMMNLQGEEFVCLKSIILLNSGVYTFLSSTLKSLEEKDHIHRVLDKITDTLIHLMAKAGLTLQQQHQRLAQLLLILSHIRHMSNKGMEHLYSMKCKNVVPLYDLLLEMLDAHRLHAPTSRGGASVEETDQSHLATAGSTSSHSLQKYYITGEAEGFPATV

Cannabinoid receptor 1 [4] = biological target: T1, Cannabinoid receptor 1; type: functional, cell-based
[5] = biological target: T2, Alpha-1A adrenergic receptor; type: functional, cell-based
[6] = biological target: T5, Muscarinic acetylcholine receptor M1 (Homo sapiens, UniProt P11229); type: functional
T5 sequence (P11229 whole entry): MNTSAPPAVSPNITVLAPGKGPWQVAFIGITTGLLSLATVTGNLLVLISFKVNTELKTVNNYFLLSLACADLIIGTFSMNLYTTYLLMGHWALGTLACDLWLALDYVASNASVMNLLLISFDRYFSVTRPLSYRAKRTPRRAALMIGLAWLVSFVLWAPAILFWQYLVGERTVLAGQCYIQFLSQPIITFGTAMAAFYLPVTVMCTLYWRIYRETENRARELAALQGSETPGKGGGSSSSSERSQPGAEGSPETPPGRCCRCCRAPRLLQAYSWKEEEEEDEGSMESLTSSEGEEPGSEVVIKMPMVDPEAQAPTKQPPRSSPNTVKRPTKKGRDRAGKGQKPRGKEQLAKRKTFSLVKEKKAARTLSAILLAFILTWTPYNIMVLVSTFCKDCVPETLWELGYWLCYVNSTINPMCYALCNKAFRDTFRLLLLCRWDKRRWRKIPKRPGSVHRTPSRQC

[7] = biological target: Muscarinic acetylcholine receptor M3 (Homo sapiens, UniProt P20309)
Sequence of Muscarinic acetylcholine receptor M3 (P20309 whole entry): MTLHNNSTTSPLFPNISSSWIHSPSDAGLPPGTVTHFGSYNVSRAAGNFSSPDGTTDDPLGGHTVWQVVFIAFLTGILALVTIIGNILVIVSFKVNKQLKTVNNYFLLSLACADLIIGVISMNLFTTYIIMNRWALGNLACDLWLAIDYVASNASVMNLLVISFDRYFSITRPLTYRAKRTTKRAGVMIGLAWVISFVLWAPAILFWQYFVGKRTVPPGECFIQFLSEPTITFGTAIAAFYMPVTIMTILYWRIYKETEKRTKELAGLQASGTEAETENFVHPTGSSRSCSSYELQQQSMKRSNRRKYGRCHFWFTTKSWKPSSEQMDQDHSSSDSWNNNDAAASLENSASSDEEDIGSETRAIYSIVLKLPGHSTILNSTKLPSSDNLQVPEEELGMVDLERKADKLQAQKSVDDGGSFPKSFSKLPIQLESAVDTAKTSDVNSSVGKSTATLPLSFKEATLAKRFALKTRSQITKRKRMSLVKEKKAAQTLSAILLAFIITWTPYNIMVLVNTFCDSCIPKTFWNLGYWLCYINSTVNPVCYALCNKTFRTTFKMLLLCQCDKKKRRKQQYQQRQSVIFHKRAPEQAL

[8] = biological target: T6, Alpha-2B adrenergic receptor (Homo sapiens, UniProt P18089)
T6 sequence (P18089 whole entry): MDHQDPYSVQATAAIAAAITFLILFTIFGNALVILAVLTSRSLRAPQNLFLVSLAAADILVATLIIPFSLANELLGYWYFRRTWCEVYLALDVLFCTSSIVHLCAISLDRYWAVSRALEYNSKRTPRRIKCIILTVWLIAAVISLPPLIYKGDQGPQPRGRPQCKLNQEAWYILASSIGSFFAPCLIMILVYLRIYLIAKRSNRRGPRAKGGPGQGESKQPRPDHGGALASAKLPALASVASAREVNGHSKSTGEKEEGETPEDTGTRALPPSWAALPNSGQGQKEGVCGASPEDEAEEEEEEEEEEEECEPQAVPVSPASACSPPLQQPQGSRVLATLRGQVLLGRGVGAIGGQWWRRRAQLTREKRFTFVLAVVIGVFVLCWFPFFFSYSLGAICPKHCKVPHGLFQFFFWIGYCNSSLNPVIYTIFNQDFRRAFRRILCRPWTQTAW
Further: assay procedure not described here.

Sequence of Melanocortin receptor 4 (P32245 whole entry): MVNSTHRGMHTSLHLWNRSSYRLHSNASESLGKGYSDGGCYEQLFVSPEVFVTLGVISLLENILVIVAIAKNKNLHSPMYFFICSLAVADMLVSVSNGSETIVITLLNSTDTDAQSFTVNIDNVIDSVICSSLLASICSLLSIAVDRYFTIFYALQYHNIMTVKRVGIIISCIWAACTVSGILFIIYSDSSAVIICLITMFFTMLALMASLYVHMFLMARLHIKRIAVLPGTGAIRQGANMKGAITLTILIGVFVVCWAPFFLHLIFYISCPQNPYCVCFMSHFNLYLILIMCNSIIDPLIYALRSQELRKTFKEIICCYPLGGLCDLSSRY
T1 sequence (P21554 whole entry): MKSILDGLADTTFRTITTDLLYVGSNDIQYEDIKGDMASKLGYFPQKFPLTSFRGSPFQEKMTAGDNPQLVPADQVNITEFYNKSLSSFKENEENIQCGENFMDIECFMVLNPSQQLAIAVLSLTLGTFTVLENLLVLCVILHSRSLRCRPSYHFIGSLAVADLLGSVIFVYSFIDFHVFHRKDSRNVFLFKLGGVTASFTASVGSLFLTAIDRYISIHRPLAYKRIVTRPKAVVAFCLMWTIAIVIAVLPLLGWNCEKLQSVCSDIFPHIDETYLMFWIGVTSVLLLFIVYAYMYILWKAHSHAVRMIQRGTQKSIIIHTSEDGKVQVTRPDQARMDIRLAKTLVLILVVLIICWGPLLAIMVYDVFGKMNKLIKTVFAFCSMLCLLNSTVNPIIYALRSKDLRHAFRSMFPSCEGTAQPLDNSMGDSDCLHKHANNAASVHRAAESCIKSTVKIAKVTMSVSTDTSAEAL

Structure (SMILES)	AC50 (Melanocortin receptor 4) [µM]	AC50 (Cannabinoid receptor 1 [1]) [µM]	AC50 [2] [µM]	AC50 [3] [µM]	AC50 (Mu-type opioid receptor) [µM]	AC50 (Estrogen receptor) [µM]	AC50 (Cannabinoid receptor 1 [4]) [µM]	AC50 [5] [µM]	AC50 [6] [µM]	AC50 [7] [µM]	AC50 [8] [µM]
CCC1(CCC(C)C)C(=O)NC(=O)NC1=O [AMOBARBITAL]	> 10	> 10	> 10	> 10	–	–	–	–	–	–	–
COc1ccc(C2C(=O)c3ccccc3C2=O)cc1 [ANISINDIONE]	> 10	> 10	> 30	> 10	> 30	> 30	–	–	–	–	–
Cc1cc(=O)n(-c2ccccc2)n1C [ANTIPYRINE]	> 30	> 10	> 10	–	–	> 30	> 30	> 30	–	–	–
O=C(O)CCNC(=O)c1ccc(/N=N/c2ccc(O)c(C(=O)O)c2)cc1 [BALSALAZIDE]	> 30	> 30	> 30	> 30	> 30	> 30	–	–	–	–	–
O=C(CCCN1CCC(O)(c2ccc(Br)cc2)CC1)c1ccc(F)cc1 [BROMPERIDOL]	–	–	–	1.2	2	> 30	> 30	0.28	20	12	–
COc1cc(N)c(Cl)cc1C(=O)NC1CCN(CCCOc2ccc(F)cc2)CC1OC (centres undefined) [CISAPRIDE]	> 30	> 10	0.593	> 10	–	> 30	> 30	–	–	–	–
CC(CN(C)C)C(C)(O)Cc1ccc(Cl)cc1 (centres undefined) [CLOBUTINOL]	> 30	> 10	> 10	> 10	–	> 30	> 30	> 30	> 10	> 30	> 10
CCOC(=O)C(C)(C)Oc1ccc(Cl)cc1 [CLOFIBRATE]	> 30	> 10	> 10	> 10	–	> 30	> 30	> 30	–	–	–
C[C@@H]1C[C@H]2[C@@H]3CCC4=CC(=O)C=C[C@]4(C)[C@@]3(F)[C@@H](O)C[C@]2(C)[C@@]1(O)C(=O)CO [DEXAMETHASONE]	> 30	> 10	> 30	> 10	> 30	–	–	–	–	–	–
CCN1CC(CCN2CCOCC2)C(c2ccccc2)(c2ccccc2)C1=O (centres undefined) [DOXAPRAM]	–	–	–	> 30	> 30	–	> 30	> 30	–	–	–
CC(C)NC[C@H](O)COc1ccc(CC(N)=O)cc1 [ESATENOLOL]	> 30	–	> 10	> 10	–	> 30	–	–	–	–	–
CCOC(=O)c1ncn2c1CN(C)C(=O)c1cc(F)ccc1-2 [FLUMAZENIL]	> 30	> 30	> 10	> 10	> 30	> 30	–	> 30	–	–	–
NNC(=O)c1ccncc1 [ISONIAZID]	> 30	> 30	> 10	> 10	> 30	> 30	> 30	> 30	–	–	–
O=C1Nc2ccc(Cl)cc2C(c2ccccc2Cl)=NC1O (centres undefined) [LORAZEPAM]	> 30	> 10	> 10	> 10	–	> 30	> 30	> 30	–	–	–
COc1ccc2cc(CCC(C)=O)ccc2c1 [NABUMETONE]	> 10	> 10	> 30	> 10	> 30	–	–	> 30	–	–	–
Cc1ccnc2c1NC(=O)c1cccnc1N2C1CC1 [NEVIRAPINE]	> 30	> 10	> 10	> 10	–	–	> 30	> 30	–	–	–
C[C@]12C/C(=C/O)C(=O)C[C@@H]1CC[C@@H]1[C@@H]2CC[C@@]2(C)[C@H]1CC[C@]2(C)O [OXYMETHOLONE]	–	–	–	–	> 30	> 30	> 30	> 30	–	–	–
Fc1ccc([C@@H]2CCNC[C@H]2COc2ccc3c(c2)OCO3)cc1 [PAROXETINE]	> 30	2.72	–	> 10	–	> 30	–	–	–	–	–
NC(=O)NC(=O)Cc1ccccc1 [PHENACEMIDE]	> 10	> 10	> 10	> 10	–	> 10	–	–	–	–	–
CCCN(CCC)S(=O)(=O)c1ccc(C(=O)O)cc1 [PROBENECID]	> 10	> 10	> 10	> 10	–	–	–	–	–	–	–
CCC(=O)O[C@](Cc1ccccc1)(c1ccccc1)[C@H](C)CN(C)C [PROPOXYPHENE]	> 30	> 10	8.05	> 10	0.17	–	> 30	> 30	> 10	16	> 10
O=c1c(O)c(-c2ccc(O)c(O)c2)oc2cc(O)cc(O)c12 [QUERCETIN]	> 30	–	–	> 10	–	> 30	–	–	> 10	> 30	> 10
Cc1cc(C)nc(NS(=O)(=O)c2ccc(N)cc2)n1 [SULFAMETHAZINE]	> 10	> 10	> 30	> 10	> 30	–	–	–	–	–	–
CCOC(=O)c1ccc(C#Cc2ccc3c(c2)C(C)(C)CCS3)nc1 [TAZAROTENE]	> 30	> 10	> 10	–	–	–	–	> 30	> 10	> 30	> 10
COc1cc(C(=O)NC2CCCNC2)cc(OC)c1OC (centres undefined) [TROXIPIDE]	–	–	–	–	> 30	–	> 30	> 30	–	–	–
CCCCCCCC(=O)CC[C@@H]1[C@@H](C/C=C\CCCC(=O)OC(C)C)[C@@H](O)C[C@H]1O [UNOPROSTONE ISOPROPYL]	–	–	–	–	–	–	–	–	> 30	–	–
CC(c1cc2ccccc2s1)N(O)C(N)=O (centres undefined) [ZILEUTON]	> 10	> 10	> 10	–	–	> 30	> 30	> 30	–	–	–
